Values joined by “and” are separate entries in the source; they are usually repeats but may differ in a detail not shown here. Equal values may be shown once. Numbers after ± are expanded uncertainties.
Key:
[1] = Liquid, Closed cell (Static) method
[2] = molar enthalpy of vaporization or sublimation; conditions: 298.15 K; Liquid; Static calorimetry
[3] = molar heat capacity at constant pressure; conditions: 101.33 kPa, Liquid

CC1=CC(=O)[C@H]2C[C@@H]1C2(C)C [(-)-verbenone]
[1]
Conditions	vapor or sublimation pressure
273.65 K	0.00181 ± 0.00015 kPa and 0.00183 ± 0.00015 kPa
273.66 K	0.00181 ± 0.00015 kPa
278.15 K	0.00278 ± 0.00017 kPa
278.16 K	0.00276 ± 0.00017 kPa and 0.00277 ± 0.00017 kPa
283.15 K	0.00436 ± 0.00021 kPa and 0.00437 ± 0.00021 kPa
288.15 K	0.00676 ± 0.00028 kPa and 0.00678 ± 0.00028 kPa and 0.00675 ± 0.00028 kPa
293.15 K	0.01031 ± 0.00042 kPa
293.16 K	0.01032 ± 0.00042 kPa and 0.01035 ± 0.00042 kPa
298.15 K	0.01545 ± 0.00056 kPa and 0.01546 ± 0.00056 kPa and 0.01547 ± 0.00056 kPa
303.15 K	0.02273 ± 0.00071 kPa and 0.02278 ± 0.00071 kPa and 0.02281 ± 0.00071 kPa
308.16 K	0.03304 ± 0.00092 kPa and 0.03307 ± 0.00092 kPa and 0.03309 ± 0.00092 kPa

Conditions	molar enthalpy [kcal/mol]
[2]	14.1 ± 0.359

[3]
Conditions	molar heat capacity at constant pressure [J/K/mol]
273.4 K, Large sample (1 g) DSC	258.83 ± 4.5
278.5 K, Large sample (1 g) DSC	260.99 ± 4.5
283.6 K, Large sample (1 g) DSC	262.32 ± 4.6
288.7 K, Large sample (1 g) DSC	264.07 ± 4.6
293.8 K, Large sample (1 g) DSC	266.73 ± 4.7
298.15 K, Drop calorimetry	270.55 ± 6.3
298.9 K, Large sample (1 g) DSC	269.39 ± 4.7
304 K, Large sample (1 g) DSC	270.47 ± 4.7
309.1 K, Large sample (1 g) DSC	273.05 ± 4.7
314.2 K, Large sample (1 g) DSC	275.62 ± 4.7
319.4 K, Large sample (1 g) DSC	276.87 ± 4.8
324.5 K, Large sample (1 g) DSC	279.45 ± 4.8
329.6 K, Large sample (1 g) DSC	281.69 ± 4.9
334.7 K, Large sample (1 g) DSC	284.69 ± 4.9
339.8 K, Large sample (1 g) DSC	286.93 ± 5
344.9 K, Large sample (1 g) DSC	289.68 ± 5
350 K, Large sample (1 g) DSC	292 ± 5.1
355.1 K, Large sample (1 g) DSC	294.42 ± 5.1

CC1=CC[C@H]2C[C@@H]1C2(C)C [(S)-2-pinene]
[1]
Conditions	vapor or sublimation pressure
238.19 K	0.0053 ± 0.00023 kPa
243.2 K	0.00874 ± 0.00035 kPa and 0.00875 ± 0.00036 kPa
253.19 K	0.02209 ± 0.00069 kPa and 0.0221 ± 0.00069 kPa
258.2 K	0.03413 ± 0.00094 kPa and 0.03415 ± 0.00094 kPa and 0.03412 ± 0.00094 kPa
263.19 K	0.05172 ± 0.0013 kPa
268.19 K	0.07688 ± 0.0019 kPa and 0.07689 ± 0.0019 kPa and 0.07691 ± 0.0019 kPa
273.65 K	0.1164 ± 0.0027 kPa
273.66 K	0.1164 ± 0.0027 kPa
278.16 K	0.1615 ± 0.0033 kPa and 0.1614 ± 0.0033 kPa
283.15 K	0.2288 ± 0.0045 kPa
288.15 K	0.3195 ± 0.0061 kPa and 0.3196 ± 0.0061 kPa
293.15 K	0.4403 ± 0.0082 kPa and 0.4404 ± 0.0082 kPa
298.15 K	0.599 ± 0.011 kPa and 0.5991 ± 0.011 kPa
303.15 K	0.8053 ± 0.015 kPa
303.16 K	0.8056 ± 0.015 kPa and 0.8057 ± 0.015 kPa
308.17 K	1.071 ± 0.019 kPa
308.18 K	1.071 ± 0.019 kPa

[3], Large sample (1 g) DSC
Conditions	molar heat capacity at constant pressure [J/K/mol]
273.4 K	239.62 ± 4.2
278.5 K	242.37 ± 4.2
283.6 K	244.61 ± 4.2
288.7 K	247.11 ± 4.2
293.8 K	249.27 ± 4.3
298.9 K	253.09 ± 4.4
304 K	255.34 ± 4.4
309.1 K	257.83 ± 4.5
314.2 K	260.41 ± 4.5
319.4 K	262.57 ± 4.6
324.5 K	266.15 ± 4.6
329.6 K	268.97 ± 4.7
334.7 K	272.3 ± 4.7
339.8 K	274.88 ± 4.7
344.9 K	278.7 ± 4.8
350 K	282.11 ± 4.9
355.1 K	284.44 ± 4.9

— the NIST ThermoML archive (doi:10.1016/j.jct.2013.01.009)
